Experimental data published in paper PMC7865522, “Analyzing Kinase Similarity in Small Molecule and Protein Structural Space to Explore the Limits of Multi-Target Screening” (Molecules, 2021).

Tests used:
PI3K [1] = target: T1, PI3K (Homo sapiens, UniProt P42336); assay: DiscoverX KINOMEscan competition binding assay; parameters: purchased DiscoverX (KINOMEscan service); host or cells: E. coli BL21-derived host (T7 phage) or HEK-293; details: compound 10 µM; lower values = higher affinity; below 35% = significant binding
Method: (§1) Ligand binding experiments for the molecules selected from Profiles 1 and 2 towards nine kinases (EGFR, ErbB2, LCK, CDK2, BRAF, MET, p38α, PI3K and VEGFR2) and for molecules selected from Profiles 3 and 4 towards four kinases (EGFR, ErbB2, BRAF and VEGFR2) were carried out by DiscoverX using the supplied protocol as described in the Supplementary Materials. Briefly, ligand affinity was measured by competition with a resin-bound standard ligand and washed-off kinase concentration was determined via qPCR.
(§2) Summarizing, binding of a compound to a kinase was tested in comparison to a control compound (see Table S2). […]
(§3) 1.1. DiscoverX kinase assay
(§4) For most assays, kinase-tagged T7 phage strains were grown in parallel in 24-well blocks in an E.coli host derived from the BL21 strain. E.coli were grown to log-phase and infected with T7 phage from a frozen stock (multiplicity of infection = 0.4) and incubated with shaking at 32°C until lysis (90-150 minutes). The lysates were centrifuged (6,000 x g) and ﬁltered (0.2µm) to remove cell debris.
(§5) The remaining kinases were produced in HEK-293 cells and subsequently tagged with DNA for qPCR detection. Streptavidin-coated magnetic beads were treated with biotinylated small molecule ligands for 30 minutes at room temperature to generate afﬁnity resins for the kinases. The liganded beads were blocked with excess biotin and washed with blocking buffer (SeaBlock [Pierce], 1% BSA, 0.05% Tween 20, 1 mM DTT) to remove unbound ligands and to reduce non-speciﬁc phage binding. Binding reactions were assembled by combining kinases, liganded afﬁnity beads, and test compounds in 1x binding buffer (20% SeaBlock, 0.17x PBS, 0.05% Tween 20, 6 mM DTT). Test compounds were prepared as 40x stocks in 100% DMSO and directly diluted into the assay. All reactions were performed in polypropylene 384-well plates in a ﬁnal volume of 0.02 ml. The assay plates were incubated at room temperature with shaking for 1 hour and the afﬁnity beads were washed with wash buffer (1x PBS, 0.05% Tween 20). The beads were then re-suspended in elution buffer (1x PBS, 0.05% Tween 20, 0.5 µM non-biotinylated afﬁnity ligand) and incubated at room temperature with shaking for 30 minutes. The kinase concentration in the eluates was measured by qPCR. […]
(§6) Table S2. Experimental % control values from the DiscoverX kinase assay. Compounds were tested against the nine kinases EGFR, ErbB2, LCK, CDK2, BRAF, MET, p38α, PI3K and VEGFR2, unless otherwise stated. Binding of kinase and compound were tested at a compound concentration of 10 µM and in comparison to a control compound. Lower values indicate a higher afﬁnity of the compound to the protein and values below 35% indicate signiﬁcant binding according to information of the CRO. […]
(§7) a Compounds were only tested against four kinases (EGFR, ErbB2, BRAF and VEGFR2). b Compound was selected independently from two docking proﬁles and tested separately during
Target sequence in this assay (P42336 whole entry): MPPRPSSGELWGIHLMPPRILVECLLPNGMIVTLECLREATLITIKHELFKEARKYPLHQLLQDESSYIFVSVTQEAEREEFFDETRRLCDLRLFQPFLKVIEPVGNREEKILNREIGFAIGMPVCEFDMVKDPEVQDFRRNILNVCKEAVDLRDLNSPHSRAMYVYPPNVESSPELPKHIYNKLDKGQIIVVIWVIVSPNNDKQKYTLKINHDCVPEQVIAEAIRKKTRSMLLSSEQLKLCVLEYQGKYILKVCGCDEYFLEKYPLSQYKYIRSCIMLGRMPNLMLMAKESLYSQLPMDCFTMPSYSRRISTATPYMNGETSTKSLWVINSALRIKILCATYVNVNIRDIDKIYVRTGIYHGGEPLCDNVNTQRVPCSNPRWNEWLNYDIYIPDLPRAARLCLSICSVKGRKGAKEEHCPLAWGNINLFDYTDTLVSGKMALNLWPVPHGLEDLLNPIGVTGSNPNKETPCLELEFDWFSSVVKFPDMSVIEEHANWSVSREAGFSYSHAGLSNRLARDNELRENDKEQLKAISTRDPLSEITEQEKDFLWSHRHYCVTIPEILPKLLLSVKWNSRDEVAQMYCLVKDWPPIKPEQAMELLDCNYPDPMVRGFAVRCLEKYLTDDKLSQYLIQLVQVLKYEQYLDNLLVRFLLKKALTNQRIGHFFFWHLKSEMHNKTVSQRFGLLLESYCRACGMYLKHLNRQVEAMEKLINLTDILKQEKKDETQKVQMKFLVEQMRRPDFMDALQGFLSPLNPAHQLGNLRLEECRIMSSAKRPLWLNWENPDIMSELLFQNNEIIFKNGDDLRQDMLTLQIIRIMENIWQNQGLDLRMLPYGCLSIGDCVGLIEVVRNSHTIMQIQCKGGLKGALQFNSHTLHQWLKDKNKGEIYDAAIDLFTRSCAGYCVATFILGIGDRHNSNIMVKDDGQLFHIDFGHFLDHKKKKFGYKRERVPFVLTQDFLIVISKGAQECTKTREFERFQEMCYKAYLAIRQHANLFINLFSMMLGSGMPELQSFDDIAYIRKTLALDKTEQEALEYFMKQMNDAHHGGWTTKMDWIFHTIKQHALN

CDK2 = target: T2, CDK2 (Homo sapiens, UniProt P24941); assay: DiscoverX KINOMEscan competition binding assay; details: compound 10 µM; lower values = higher affinity; below 35% = significant binding
T2 construct: purchased DiscoverX (KINOMEscan service); host or cells: E. coli BL21-derived host (T7 phage) or HEK-293
Method: as §1, §2, §3, §4, §5, §6, §7

BRAF [2] = target: T3, BRAF (Homo sapiens, UniProt P15056); assay: DiscoverX KINOMEscan competition binding assay; details: compound 10 µM, lower values = higher affinity, below 35% = significant binding
T3 construct: purchased DiscoverX (KINOMEscan service); host or cells: E. coli BL21-derived host (T7 phage) or HEK-293
Method: as §1, §2, §3, §4, §5, §6, §7

p38α = target: T4, p38α (Homo sapiens, UniProt Q16539); assay: DiscoverX KINOMEscan competition binding assay; details: compound 10 µM; lower values = higher affinity; below 35% = significant binding
T4 construct: purchased DiscoverX (KINOMEscan service); host or cells: E. coli BL21-derived host (T7 phage) or HEK-293
Method: as §1, §2, §3, §4, §5, §6, §7

VEGFR2 = target: T5, VEGFR2 (Homo sapiens, UniProt P35968); assay: DiscoverX KINOMEscan competition binding assay; details: compound 10 µM, lower values = higher affinity, below 35% = significant binding
T5 construct: purchased DiscoverX (KINOMEscan service); host or cells: E. coli BL21-derived host (T7 phage) or HEK-293
Method: as §1, §2, §3, §4, §5, §6, §7

EGFR [3] = target: T6, EGFR (Homo sapiens, UniProt P00533); assay: DiscoverX KINOMEscan competition binding assay; details: compound 10 µM; lower values = higher affinity; below 35% = significant binding
T6 construct: purchased DiscoverX (KINOMEscan service); host or cells: E. coli BL21-derived host (T7 phage) or HEK-293
Method: as §1, §2, §3, §4, §5, §6, §7

ErbB2 [4] = target: T7, ErbB2 (Homo sapiens, UniProt P04626); assay: DiscoverX KINOMEscan competition binding assay; details: compound 10 µM, lower values = higher affinity, below 35% = significant binding
T7 construct: purchased DiscoverX (KINOMEscan service); host or cells: E. coli BL21-derived host (T7 phage) or HEK-293
Method: as §1, §2, §3, §4, §5, §6, §7

LCK = target: T8, LCK (Homo sapiens, UniProt P06239); assay: DiscoverX KINOMEscan competition binding assay; details: compound 10 µM; lower values = higher affinity; below 35% = significant binding
T8 construct: purchased DiscoverX (KINOMEscan service); host or cells: E. coli BL21-derived host (T7 phage) or HEK-293
Method: as §1, §2, §3, §4, §5, §6, §7

MET = target: T9, MET (Homo sapiens, UniProt P08581); assay: DiscoverX KINOMEscan competition binding assay; details: compound 10 µM; lower values = higher affinity; below 35% = significant binding
T9 construct: purchased DiscoverX (KINOMEscan service); host or cells: E. coli BL21-derived host (T7 phage) or HEK-293
Method: as §1, §2, §3, §4, §5, §6, §7

PI3K [5] = target: T1, PI3K; assay: Eurofins in vitro kinase inhibition assay (HTRF, PIP3 displacement); assay type: biochemical; parameters: purchased Eurofins Cerep (contract assay); details: compound 20 µM; mean (SD); above 50% significant, 25-50% weak
Method: (§8) Kinase inhibition assays for EGFR, ErbB2, PI3K and BRAF were carried out by Eurofins Cerep following the protocols of Weber et al. (EGFR), Quian et al. (ErbB2), Sinnamon et al. (PI3K) and Kupcho et al. (BRAF). Briefly, except for PI3K, compounds were incubated with the respective kinase, ATP, and a substrate analog, and the effect of each compound on phosphorylation was measured. In the case of PI3K, the displacement of biotinylated PIP3 from a PIP3-binding complex by unlabelled PIP3 (produced from PIP2 by PI3K) was measured by Homogeneous Time Resolved Fluorescence (HTRF).
(§9) Finally, inhibition of the respective kinases is calculated as the percentage inhibition of control activity.
(§10) Table S3. Experimental results from the Euroﬁns assay. Inhibition of four kinases (EGFR, PI3K, ErbB2, BRAF) was measured at compound concentrations of 20 µM. Inhibition was calculated as % inhibition of control activity. According to CRO, values above 50% inhibition represent signiﬁcant inhibition, values above 25% weak inhibition effect and values below 25% as well as negative values are usually not signiﬁcant. Results are reported in mean (SD) format. […]
(§11) a Compound interfered with assay readout.
Target sequence in this assay (P42336 whole entry): as above
Target sequence in this assay (P27986 whole entry partner): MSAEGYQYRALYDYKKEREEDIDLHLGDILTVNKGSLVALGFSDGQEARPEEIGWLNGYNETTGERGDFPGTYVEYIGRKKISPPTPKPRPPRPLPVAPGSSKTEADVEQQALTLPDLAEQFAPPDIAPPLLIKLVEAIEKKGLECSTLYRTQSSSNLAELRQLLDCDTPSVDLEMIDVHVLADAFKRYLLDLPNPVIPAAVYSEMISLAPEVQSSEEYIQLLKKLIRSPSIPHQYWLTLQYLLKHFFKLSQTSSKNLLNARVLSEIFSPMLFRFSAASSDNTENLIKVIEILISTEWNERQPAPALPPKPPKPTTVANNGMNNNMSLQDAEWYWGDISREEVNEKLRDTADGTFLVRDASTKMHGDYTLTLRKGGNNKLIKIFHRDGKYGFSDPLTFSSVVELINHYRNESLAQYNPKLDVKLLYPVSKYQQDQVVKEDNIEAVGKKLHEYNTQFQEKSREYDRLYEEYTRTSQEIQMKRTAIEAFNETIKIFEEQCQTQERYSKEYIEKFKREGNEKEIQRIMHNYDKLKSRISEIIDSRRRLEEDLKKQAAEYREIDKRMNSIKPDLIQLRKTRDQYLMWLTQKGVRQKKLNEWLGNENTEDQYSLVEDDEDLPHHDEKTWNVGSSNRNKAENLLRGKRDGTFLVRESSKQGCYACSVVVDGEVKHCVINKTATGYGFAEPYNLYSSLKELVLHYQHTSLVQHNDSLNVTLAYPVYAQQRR

BRAF [6] = target: T3, BRAF; assay: Eurofins in vitro kinase inhibition assay; assay type: biochemical; details: compound 20 µM; mean (SD); above 50% significant, 25-50% weak
Method: as §8, §9, §10, §11

EGFR [7] = target: T6, EGFR; assay: Eurofins in vitro kinase inhibition assay; assay type: biochemical; details: compound 20 µM; mean (SD); above 50% significant, 25-50% weak
Method: as §8, §9, §10, §11

ErbB2 [8] = target: T7, ErbB2; assay: Eurofins in vitro kinase inhibition assay; assay type: biochemical; details: compound 20 µM; mean (SD); above 50% significant, 25-50% weak
Method: as §8, §9, §10, §11

T6 sequence (P00533 25-1210): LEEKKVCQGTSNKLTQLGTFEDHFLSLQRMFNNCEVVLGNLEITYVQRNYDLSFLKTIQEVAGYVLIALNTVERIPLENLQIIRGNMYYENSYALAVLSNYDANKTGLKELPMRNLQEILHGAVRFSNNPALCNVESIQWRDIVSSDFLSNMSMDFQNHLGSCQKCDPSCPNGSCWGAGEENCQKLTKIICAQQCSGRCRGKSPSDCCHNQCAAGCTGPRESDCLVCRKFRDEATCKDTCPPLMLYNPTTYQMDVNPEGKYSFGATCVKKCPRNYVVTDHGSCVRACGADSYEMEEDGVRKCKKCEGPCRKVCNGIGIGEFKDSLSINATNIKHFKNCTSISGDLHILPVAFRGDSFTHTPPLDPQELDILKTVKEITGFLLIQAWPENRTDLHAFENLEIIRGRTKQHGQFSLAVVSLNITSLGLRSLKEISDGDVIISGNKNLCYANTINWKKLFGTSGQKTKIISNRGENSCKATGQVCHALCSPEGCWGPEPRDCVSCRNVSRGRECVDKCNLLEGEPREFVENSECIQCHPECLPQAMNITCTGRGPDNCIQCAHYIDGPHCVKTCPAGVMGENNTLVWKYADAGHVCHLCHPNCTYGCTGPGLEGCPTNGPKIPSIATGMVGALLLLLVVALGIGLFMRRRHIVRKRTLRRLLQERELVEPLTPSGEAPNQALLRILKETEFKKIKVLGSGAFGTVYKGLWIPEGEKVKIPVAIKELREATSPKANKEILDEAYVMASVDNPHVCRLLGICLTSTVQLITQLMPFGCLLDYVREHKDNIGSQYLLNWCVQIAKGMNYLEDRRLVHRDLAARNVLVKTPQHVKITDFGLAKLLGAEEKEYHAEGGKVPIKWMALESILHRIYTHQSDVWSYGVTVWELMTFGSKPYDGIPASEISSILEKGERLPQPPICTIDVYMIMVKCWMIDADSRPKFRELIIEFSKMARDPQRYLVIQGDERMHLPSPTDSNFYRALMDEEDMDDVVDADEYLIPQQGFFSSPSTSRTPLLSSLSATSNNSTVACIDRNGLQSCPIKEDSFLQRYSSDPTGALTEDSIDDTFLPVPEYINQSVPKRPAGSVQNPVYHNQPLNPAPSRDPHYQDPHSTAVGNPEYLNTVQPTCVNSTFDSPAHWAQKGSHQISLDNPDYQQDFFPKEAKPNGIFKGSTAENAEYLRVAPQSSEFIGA
T4 sequence (Q16539 whole entry): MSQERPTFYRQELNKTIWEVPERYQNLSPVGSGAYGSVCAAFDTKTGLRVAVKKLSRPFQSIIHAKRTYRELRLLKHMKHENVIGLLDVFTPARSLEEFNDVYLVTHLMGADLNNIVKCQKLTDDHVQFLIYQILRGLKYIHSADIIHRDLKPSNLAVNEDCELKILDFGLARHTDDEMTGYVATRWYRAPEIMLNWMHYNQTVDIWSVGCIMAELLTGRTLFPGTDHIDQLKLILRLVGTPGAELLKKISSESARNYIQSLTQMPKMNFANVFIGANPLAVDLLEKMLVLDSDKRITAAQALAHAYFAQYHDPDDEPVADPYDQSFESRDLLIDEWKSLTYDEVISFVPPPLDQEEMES
T3 sequence (P15056 whole entry): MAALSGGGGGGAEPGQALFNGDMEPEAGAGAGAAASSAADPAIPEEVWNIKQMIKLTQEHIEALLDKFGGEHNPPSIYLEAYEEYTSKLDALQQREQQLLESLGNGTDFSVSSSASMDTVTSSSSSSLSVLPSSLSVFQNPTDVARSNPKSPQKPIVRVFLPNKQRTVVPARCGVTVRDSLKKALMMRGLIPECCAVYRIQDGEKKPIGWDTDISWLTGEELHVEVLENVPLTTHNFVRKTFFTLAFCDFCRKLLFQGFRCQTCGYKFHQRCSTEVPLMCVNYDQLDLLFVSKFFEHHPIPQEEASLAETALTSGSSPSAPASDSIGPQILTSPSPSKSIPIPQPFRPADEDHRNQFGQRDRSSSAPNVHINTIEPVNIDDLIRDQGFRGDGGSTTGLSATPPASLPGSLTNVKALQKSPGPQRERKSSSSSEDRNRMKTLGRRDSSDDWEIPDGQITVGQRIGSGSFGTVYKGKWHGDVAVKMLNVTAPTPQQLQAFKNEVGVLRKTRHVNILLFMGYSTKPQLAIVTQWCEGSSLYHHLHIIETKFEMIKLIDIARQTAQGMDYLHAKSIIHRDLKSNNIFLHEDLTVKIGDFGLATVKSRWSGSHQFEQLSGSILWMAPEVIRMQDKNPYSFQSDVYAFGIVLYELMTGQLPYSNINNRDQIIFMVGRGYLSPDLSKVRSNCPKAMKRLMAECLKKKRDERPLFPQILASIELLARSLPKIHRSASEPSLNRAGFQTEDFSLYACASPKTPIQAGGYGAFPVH
T8 sequence (P06239 whole entry): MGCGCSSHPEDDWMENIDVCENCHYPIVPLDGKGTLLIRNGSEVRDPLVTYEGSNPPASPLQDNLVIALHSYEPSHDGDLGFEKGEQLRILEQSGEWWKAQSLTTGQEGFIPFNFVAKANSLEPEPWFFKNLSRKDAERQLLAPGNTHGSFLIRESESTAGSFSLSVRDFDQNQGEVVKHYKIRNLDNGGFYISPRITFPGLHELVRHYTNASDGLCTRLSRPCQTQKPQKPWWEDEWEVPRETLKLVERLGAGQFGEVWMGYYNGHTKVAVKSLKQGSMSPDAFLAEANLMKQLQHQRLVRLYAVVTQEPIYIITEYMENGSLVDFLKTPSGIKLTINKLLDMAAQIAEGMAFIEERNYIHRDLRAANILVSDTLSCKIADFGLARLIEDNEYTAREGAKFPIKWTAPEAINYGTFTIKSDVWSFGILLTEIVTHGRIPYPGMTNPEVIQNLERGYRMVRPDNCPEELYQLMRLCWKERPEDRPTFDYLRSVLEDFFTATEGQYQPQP

Row | SMILES | % control, PI3K (DiscoverX) (PI3K [1]) | % control, CDK2 (DiscoverX) (CDK2) | % control, BRAF (DiscoverX) (BRAF [2]) | % control, p38α (DiscoverX) (p38α) | % control, VEGFR2 (DiscoverX) (VEGFR2) | % control, EGFR (DiscoverX) (EGFR [3]) | % control, ErbB2 (DiscoverX) (ErbB2 [4]) | % control, LCK (DiscoverX) (LCK) | % control, MET (DiscoverX) (MET) | % inhibition of control activity, PI3K (Eurofins) (PI3K [5]) | % inhibition of control activity, BRAF (Eurofins) (BRAF [6]) | % inhibition of control activity, EGFR (Eurofins) (EGFR [7]) | % inhibition of control activity, ErbB2 (Eurofins) (ErbB2 [8]) | % control, BRAF (DiscoverX) (BRAF [2]; listed as K001MM009) | % control, VEGFR2 (DiscoverX) (VEGFR2; listed as K001MM009) | % control, ErbB2 (DiscoverX) (ErbB2 [4]; listed as K001MM009)
1 | CCc1nnc(NC(=O)c2nn(-c3ccc(C)cc3)ccc2=O)s1 [DS59212] | 87 % control | 100 % control | 100 % control | 99 % control | 100 % control | 100 % control | 100 % control | 100 % control | 97 % control | 0.2 (3.6) % inhibition | -22.9 (4.9) % inhibition | 7.8 (3.3) % inhibition | 5.8 (0.2) % inhibition | – | – | –
2 | Cc1ccc(-n2cnnn2)cc1NC(=O)NCC1CC1 [DS44738] | 94 % control | 100 % control | 100 % control | 100 % control | 100 % control | 100 % control | 91 % control | 100 % control | 84 % control | 0.4 (1.7) % inhibition | -20.8 (0.4) % inhibition | 4.4 (14.0) % inhibition | 10.5 (23.6) % inhibition | 96 % control | 98 % control | 98 % control
3 | COc1ccc(-c2nn(C(C)=O)c3c2C(=O)CC(C)(C)C3)cc1 [DS18339] | 100 % control | 100 % control | 100 % control | 99 % control | 97 % control | 97 % control | 100 % control | 89 % control | 100 % control | -3.7 (0.3) % inhibition | -21.8 (9.5) % inhibition | 15.3 (7.7) % inhibition | 0.7 (1.1) % inhibition | – | – | –
4 | O=C(O)c1cncnc1NCc1nc(-c2cnccn2)n[nH]1 [DS74417] | 97 % control | 100 % control | 86 % control | 100 % control | 100 % control | 89 % control | 100 % control | 100 % control | 100 % control | 2.1 (0.4) % inhibition | -0.3 (1.6) % inhibition | 18 (3.2) % inhibition | -2.8 (0.7) % inhibition | – | – | –
5 | CC(=O)c1cc(CC(=O)N(C)C[C@H]2CCCCO2)cs1 [DS84326] | 100 % control | 100 % control | 100 % control | 90 % control | 100 % control | 100 % control | 97 % control | 100 % control | 95 % control | 0.7 (0.8) % inhibition | -8.2 (13.6) % inhibition | 23.4 (0.6) % inhibition | 0.2 (2.8) % inhibition | – | – | –
6 | Cc1ccc(-n2cnnn2)cc1NC(=O)NC1CC1 [DS44245] | 100 % control | 100 % control | 99 % control | 100 % control | 98 % control | 100 % control | 100 % control | 100 % control | 90 % control | 1.8 (4.4) % inhibition | -13.7 (10.5) % inhibition | 2.4 (14.7) % inhibition | -3.4 (1.0) % inhibition | – | – | –
7 | COCCCNC(=O)c1nc2c3c4c(sc3ncn2n1)CC[C@H](C)C4 [DS31939] | 73 % control | 100 % control | 100 % control | 100 % control | 100 % control | 100 % control | 100 % control | 99 % control | 100 % control | – | -27.8 (10.8) % inhibition | 9.6 (0.2) % inhibition | -1.7 (0.8) % inhibition | – | – | –
8 | CCc1nccc(-c2nccn2C(Cn2cccn2)c2ccccc2)n1 (stereo not drawn) [DS23815] | 97 % control | 99 % control | 99 % control | 100 % control | 100 % control | 100 % control | 100 % control | 100 % control | 99 % control | – | -19.7 (2.4) % inhibition | 10.7 (0.4) % inhibition | -7.2 (5.7) % inhibition | – | – | –
